# Test: Radiochemical purity by iTLC over time after radiolabelling
# Format: physicochemical
# Experimental: Table 1 to Table 5 show the results of various radiolabelling experiments on radiochemical purity and the chelation yield. The radiolabelling experiments in the tables are carried out as described in: • Example 1 for when the gallium-68 source is GE Liquid target generator and EZAG GalliaPharm generator; • Example 2 for when the gallium-68 source is IRE Galli Eo generator; • Example 3 for when the gallium-68 source is GE solid target generator;
# However, the experiments were carried out with the amount of ascorbic acid as indicated in the Tables 1 to 5, and the activity as indicated in the Tables 1 to 5. Radiochemical purities were measured at various times (T0, T1, T4, T6) after the radiolabelled experiments have been conducted.
# The kits of Example 1, Example 2 or Example 3, with amounts of ascorbic acid as set out in Table 7 were used in the experiments for the ascorbic acid bracketing matrix. Three strengths of [^68Ga]Ga-PSMA-11 will be tested, i.e. 50 mCi/ml, 7 mCi/ml and 1 mCi/ml. Radiochemical purity was determined at different time points (TO, T1, T4 or T6), as set out in Table 7.
# [1] = 1 mg ascorbic acid, 58.7-71.1 mCi, 7.47-8.99 mCi/mL, GE Liquid target, average of 3, T0
# [2] = 1 mg ascorbic acid, 58.7-71.1 mCi, 7.47-8.99 mCi/mL, GE Liquid target, average of 3, T4 (4 h)
# [3] = 1 mg ascorbic acid, 58.7-71.1 mCi, 7.47-8.99 mCi/mL, GE Liquid target, n=3, T0
# [4] = 1 mg ascorbic acid, 58.7-71.1 mCi, 7.47-8.99 mCi/mL, GE Liquid target, n=3, T4 (4 h)
# [5] = 2.5 mg ascorbic acid, 49.9-76.9 mCi, 6.31-9.72 mCi/mL, GE Liquid target, average of 3, T0
# [6] = 2.5 mg ascorbic acid, 49.9-76.9 mCi, 6.31-9.72 mCi/mL, GE Liquid target, average of 3, T4 (4 h)
# [7] = 2.5 mg ascorbic acid, 49.9-76.9 mCi, 6.31-9.72 mCi/mL, GE Liquid target, n=3, T0
# [8] = 2.5 mg ascorbic acid, 49.9-76.9 mCi, 6.31-9.72 mCi/mL, GE Liquid target, n=3, T4 (4 h)
# [9] = 5 mg ascorbic acid, 60-69.9 mCi, 7.61-8.81 mCi/mL, 3 × GE Liquid Target, 3 × EZAG GalliaPharm, average of 6, T0
# [10] = 5 mg ascorbic acid, 60-69.9 mCi, 7.61-8.81 mCi/mL, 3 × GE Liquid Target, 3 × EZAG GalliaPharm, average of 6, T4 (4 h)
# [11] = 5 mg ascorbic acid, 60-69.9 mCi, 7.61-8.81 mCi/mL, 3 × GE Liquid Target, 3 × EZAG GalliaPharm, n=6, T0
# [12] = 5 mg ascorbic acid, 60-69.9 mCi, 7.61-8.81 mCi/mL, 3 × GE Liquid Target, 3 × EZAG GalliaPharm, n=6, T4 (4 h)
# [13] = 10 mg ascorbic acid, 458-500 mCi, 43.4-47.3 mCi/mL, GE Solid Target, average of 3, T0
# [14] = 10 mg ascorbic acid, 458-500 mCi, 43.4-47.3 mCi/mL, GE Solid Target, average of 3, T4 (4 h)
# [15] = 10 mg ascorbic acid, 458-500 mCi, 43.4-47.3 mCi/mL, GE Solid Target, n=3, T0
# [16] = 10 mg ascorbic acid, 458-500 mCi, 43.4-47.3 mCi/mL, GE Solid Target, n=3, T4 (4 h)
# [17] = 10 mg ascorbic acid, 514-520 mCi, 49.0-66.1 mCi/mL, GE Solid Target, average of 3, T0
# [18] = 10 mg ascorbic acid, 514-520 mCi, 49.0-66.1 mCi/mL, GE Solid Target, average of 3, T6 (6 h)
# [19] = 10 mg ascorbic acid, 514-520 mCi, 49.0-66.1 mCi/mL, GE Solid Target, n=3, T0
# [20] = 10 mg ascorbic acid, 514-520 mCi, 49.0-66.1 mCi/mL, GE Solid Target, n=3, T6 (6 h)
structure (smiles),measurement,setting,value
"O=C([O-])CN(CCN(CC(=O)[O-])Cc1cc(CCC(=O)NCCCCCC(=O)NCCCC[C@H](NC(=O)N[C@@H](CCC(=O)O)C(=O)O)C(=O)O)ccc1[O-])Cc1cc(CCC(=O)O)ccc1[O-].[68Ga+3].[OH3+] [[^68Ga]PSMA-11, gallium-68 radiolabelled Glu-urea-Lys-HBED-CC (gozetotide or PSMA-11)]",Radiochemical Purity (iTLC) Free and Colloidal Ga-68 (%),[1],0%
same,Radiochemical Purity (iTLC) Ga-68 PSMA-11 (%),[1],100%
same,Radiochemical Purity (iTLC) Free and Colloidal Ga-68 (%),[2],0%
same,Radiochemical Purity (iTLC) Ga-68 PSMA-11 (%),[2],100%
same,Radiochemical Purity (iTLC) Free and Colloidal Ga-68 (%),[3],C (C = conforms to specifications)
same,Radiochemical Purity (iTLC) Ga-68 PSMA-11 (%),[3],C (C = conforms to specifications)
same,Radiochemical Purity (iTLC) Free and Colloidal Ga-68 (%),[4],C (C = conforms to specifications)
same,Radiochemical Purity (iTLC) Ga-68 PSMA-11 (%),[4],C (C = conforms to specifications)
same,Radiochemical Purity (iTLC) Free and Colloidal Ga-68 (%),[5],0%
same,Radiochemical Purity (iTLC) Ga-68 PSMA-11 (%),[5],100%
same,Radiochemical Purity (iTLC) Free and Colloidal Ga-68 (%),[6],0%
same,Radiochemical Purity (iTLC) Ga-68 PSMA-11 (%),[6],100%
same,Radiochemical Purity (iTLC) Free and Colloidal Ga-68 (%),[7],C (C = conforms to specifications)
same,Radiochemical Purity (iTLC) Ga-68 PSMA-11 (%),[7],C (C = conforms to specifications)
same,Radiochemical Purity (iTLC) Free and Colloidal Ga-68 (%),[8],C (C = conforms to specifications)
same,Radiochemical Purity (iTLC) Ga-68 PSMA-11 (%),[8],C (C = conforms to specifications)
same,Radiochemical Purity (iTLC) Free and Colloidal Ga-68 (%),[9],0%
same,Radiochemical Purity (iTLC) Ga-68 PSMA-11 (%),[9],100%
same,Radiochemical Purity (iTLC) Free and Colloidal Ga-68 (%),[10],0%
same,Radiochemical Purity (iTLC) Ga-68 PSMA-11 (%),[10],100%
same,Radiochemical Purity (iTLC) Free and Colloidal Ga-68 (%),[11],C (C = conforms to specifications)
same,Radiochemical Purity (iTLC) Ga-68 PSMA-11 (%),[11],C (C = conforms to specifications)
same,Radiochemical Purity (iTLC) Free and Colloidal Ga-68 (%),[12],C (C = conforms to specifications)
same,Radiochemical Purity (iTLC) Ga-68 PSMA-11 (%),[12],C (C = conforms to specifications)
same,Radiochemical Purity (iTLC) Free and Colloidal Ga-68 (%),[13],0%
same,Radiochemical Purity (iTLC) Ga-68 PSMA-11 (%),[13],100%
same,Radiochemical Purity (iTLC) Free and Colloidal Ga-68 (%),[14],0%
same,Radiochemical Purity (iTLC) Ga-68 PSMA-11 (%),[14],100%
same,Radiochemical Purity (iTLC) Free and Colloidal Ga-68 (%),[15],C (C = conforms to specifications)
same,Radiochemical Purity (iTLC) Ga-68 PSMA-11 (%),[15],C (C = conforms to specifications)
same,Radiochemical Purity (iTLC) Free and Colloidal Ga-68 (%),[16],C (C = conforms to specifications)
same,Radiochemical Purity (iTLC) Ga-68 PSMA-11 (%),[16],C (C = conforms to specifications)
same,Radiochemical Purity (iTLC) Free and Colloidal Ga-68 (%),[17],0%
same,Radiochemical Purity (iTLC) Ga-68 PSMA-11 (%),[17],100%
same,Radiochemical Purity (iTLC) Free and Colloidal Ga-68 (%),[18],0%
same,Radiochemical Purity (iTLC) Ga-68 PSMA-11 (%),[18],100%
same,Radiochemical Purity (iTLC) Free and Colloidal Ga-68 (%),[19],C (C = conforms to specifications)
same,Radiochemical Purity (iTLC) Ga-68 PSMA-11 (%),[19],C (C = conforms to specifications)
same,Radiochemical Purity (iTLC) Free and Colloidal Ga-68 (%),[20],C (C = conforms to specifications)
same,Radiochemical Purity (iTLC) Ga-68 PSMA-11 (%),[20],C (C = conforms to specifications)
same,Radiochemical Purity (iTLC) Free and Colloidal Ga-68 (%),"15 mg ascorbic acid, 10.0-18.4 mCi, 0.95-1.77 mCi/mL, 1 × EZAG GalliaPharm, 2 × IRE Galli Eo, average of 3, T0",0%

# From patent publication US20250360235A1, “RADI[…] AND METHOD FOR RADIOLABELLING” (Telix Innovations SA, priority 2024, published 2025)
